Results reported in patent US8241607B2, “Use of fructose-based compounds for the diagnosis of cancer” (priority 2005, dated 2012).

Key:
Type in all cases: cell-based
MAPK pathway = experiment: Western blot of MAPK pathway in breast cancer cells
Description: FIG. 11 depicts increased breast cancer phosphorylated-MEK, phosphorylated Rsk, and phosphorylated CREB in accordance with an embodiment of the present invention. MCF-7 breast cancer cells were incubated in 2 mM glucose, 5 mM glucose or 5 mM fructose for 24 hours, after which Western blot analysis on total protein lysates was employed to examine components of the MAP kinase pathway. […] Total MEK, Rsk, and CREB levels, and β-actin served as loading controls.
Although several signal transduction pathways are likely involved in the fructose-mediated enhanced breast cancer growth and while not wishing to be bound by any particular theory, the inventors believe that the MAP-kinase pathway is involved. The inventors have used Western blot analysis to examine the MAPK pathway in breast cancer cells incubated in 2 mM glucose, 5.5 mM glucose, and 5.5 mM fructose for 48 hours. […] Activation of MEK, and subsequently ERK results in phosphorylation of p90^Rsk, which leads to transcriptional activation of CREB and AP1, which bind to cAMP or AP1 response elements respectively, activating gene transcription and promoting cellular growth.

PANC-1 cells = experiment: [1,2-13C2] stable isotope-based dynamic metabolic profiling in PANC-1 cells; settings: 72 h
Description: FIG. 28 depicts the metabolism of fructose and glucose in pancreatic cancer cells in accordance with an embodiment of the present invention. Lactate generation from glycolysis (a), and hexose oxidation in the pentose and tricarboxylic acid cycles (b) following treatment of PANC-1 cells with 2 mM glucose, 5.5 mM glucose, and 5.5 mM fructose for 72 h. […] In (b), the ^13C to ^12C ratio in the CO2 released from the PANC-1 cells is presented.
FIG. 29 depicts fatty acid synthesis from glucose versus fructose in accordance with an embodiment of the present invention. Fatty acid synthesis represented by (a), ^13C-labelled oleate, (b) ^13C-labelled arachidic acid, and (c) ^13C-labelled 24-carbon fatty acid fraction following treatment of PANC-1 cells with 2 mM, and 5.5 mM glucose, and 5.5 mM fructose for 72 h. For the fatty acids, the fraction of ^13C-labeled oleate, arachidic acid or 24-carbon fatty acid is expressed as percentage of total oleate, arachidic acid or 24-carbon fatty acids, respectively.
FIG. 30 depicts ribose and deoxyribose synthesis following glucose and fructose treatment in accordance with an embodiment of the present invention.
Metabolism comprises anabolic (converting small molecules into big ones) and catabolic processes (converting food into useful energy), predicts the functional state of a cell, and analyzes the levels of the end products (metabolites) of anabolism and catabolism. Metabolic profiling using stable isotope tracer technology ([1,2-^13C] sugars) allows the measurement of the changing pattern of distribution of ^13C carbons from [1,2-^13C] glucose in intracellular metabolic intermediates, and provides a simultaneous measure of carbon flow toward the pentose cycle, glycolysis, direct glucose oxidation, tricarboxylic acid (TCA) cycle and fatty acid synthesis (76,77). […] The inventors employed [1,2-^13C2] glucose, or [1,2-^13C2] fructose stable isotope-based dynamic metabolic profiling (SiDMAP, Los Angeles, US) to track and quantify changes in glucose, and fructose carbon re-distribution among major metabolic pathways in pancreatic cancer cells (Lee W N, Boros L G, Puigjaner J, Bassilian S, Lim S, Cascante M. Mass istopomer study of transketolase-transaldolase pathways of the pentose cycle with [1,2-^13C2]glucose. Am J Physiol 274:E843-51, 1998; Lee W N, Byerley L O, Bassilian S, Ajie H O, Clark I, Edmond J. Isotopomer study of lipogenesis in human hepatoma cells in culture: contribution of carbon and hydrogen atoms from glucose. Anal Biochem 226: 100-112). The principles of this methodology are outlined below in a series of schematics (FIGS. 25-27) illustrating how this technique tracked carbohydrate metabolism and the data generated. […]

GLUT-5 mRNA = experiment: Real-time RT-PCR of GLUT-5 mRNA in PANC-1 cells; settings: 5.5 mM fructose, 24 h
Description: FIG. 22 depicts […] mRNA levels in pancreatic cancer cells in accordance with an embodiment of the present invention. Quantitative real-time RT-PCR was used to measure GLUT-5 mRNA levels in pancreatic cancer cells (PANC-1), following culture in 2 mM glucose, 5.5 mM glucose, or 5.5 mM fructose for 4 h and 24 h.
Brit J Biomed Sci 56(4): 285-292, 1999; Rogers S, Docherty S E, Slavin J L, Henderson and Best J D. Differential expression of GLUT12 in breast cancer and normal breast tissue. Cancer Letters 193(2): 225-233, 2003). […] Real-time RT-PCR was used to measure GLUT-5 mRNA expression following 2 mM, and 5.5 mM glucose-, and 5.5 mM fructose-treatment for 4 h, and 24 h respectively. GLUT-5 mRNA was expressed as the fold-change relative to GLUT-5 mRNA levels in 2 mM glucose-treated cells. As depicted in FIG. 22, at 4 h, GLUT-5 mRNA levels were low in both the 5.5 mM glucose-, and fructose-treated PANC-1 cells. […] This agrees with other studies which have reported fructose-induced GLUT-5 mRNA expression in colon cancer (74).

[1] = breast cancer cells, 5.5 mM fructose, 24 h, vs 5.5 and 2 mM glucose

SMILES: O=C(CO)[C@@H](O)[C@H](O)[C@H](O)CO [fructose]
- phospho-MEK (pMEK) expression (MAPK pathway; MCF-7 and MDA-MB231, 5.5 mM fructose vs 5.5 and 2 mM glucose): increased expression
- phospho-CREB (pCREB) (MAPK pathway; [1]): increased
- phospho-Rsk (pRsk) (MAPK pathway; [1]): increased
- route of metabolism in the pentose phosphate shunt (PANC-1 cells; 5.5 mM 13C-labeled sugar): preferentially metabolized by TKK
- fraction metabolized for fatty acid synthesis (FAS) (PANC-1 cells; 13C-labeled fructose vs glucose): comparatively less
- CO2 production, fructose in comparison to glucose (PANC-1 cells; 13C-labeled sugar): 34 fold lower
- lactate production, fructose in comparison to glucose (PANC-1 cells; 13C-labeled sugar): 34 fold lower
- GLUT-5 mRNA levels relative to 2 mM glucose-treated cells (GLUT-5 mRNA): 1.5 fold higher
- GLUT-5 mRNA levels relative to 5.5 mM glucose-treated cells (GLUT-5 mRNA): 1.75 fold higher
